For 15 molecules, IC50, Activity and Selectivity index results are on record in ChEMBL document CHEMBL1144495, “Tri-, tetra- and heptacyclic perylene analogues as new potential antineoplastic agents based on DNA telomerase inhibition” (Bioorg Med Chem, 2007).

The source made the active and inactive calls. The calls are words filed in the database; no cut-off is given here.

The subject of assay [1] is NCI-H460. The assay is described as follows: Cytotoxicity against human H460 cells by MTT assay. It is filed as cell-based.
Assay [2] has as its target T1, Telomerase reverse transcriptase (Homo sapiens, UniProt O14746). As to the kind of experiment: Inhibition of telomerase in JR8 cell extract at 0 to 40 uM by TRAP assay. Type of assay: cell-free.
Assay [3] deals with DNA polymerase I, thermostable (Thermus aquaticus, UniProt P19821). The assay is described as follows: Inhibition of Taq polymerase.
DNA polymerase I, thermostable, sequence (P19821 whole entry): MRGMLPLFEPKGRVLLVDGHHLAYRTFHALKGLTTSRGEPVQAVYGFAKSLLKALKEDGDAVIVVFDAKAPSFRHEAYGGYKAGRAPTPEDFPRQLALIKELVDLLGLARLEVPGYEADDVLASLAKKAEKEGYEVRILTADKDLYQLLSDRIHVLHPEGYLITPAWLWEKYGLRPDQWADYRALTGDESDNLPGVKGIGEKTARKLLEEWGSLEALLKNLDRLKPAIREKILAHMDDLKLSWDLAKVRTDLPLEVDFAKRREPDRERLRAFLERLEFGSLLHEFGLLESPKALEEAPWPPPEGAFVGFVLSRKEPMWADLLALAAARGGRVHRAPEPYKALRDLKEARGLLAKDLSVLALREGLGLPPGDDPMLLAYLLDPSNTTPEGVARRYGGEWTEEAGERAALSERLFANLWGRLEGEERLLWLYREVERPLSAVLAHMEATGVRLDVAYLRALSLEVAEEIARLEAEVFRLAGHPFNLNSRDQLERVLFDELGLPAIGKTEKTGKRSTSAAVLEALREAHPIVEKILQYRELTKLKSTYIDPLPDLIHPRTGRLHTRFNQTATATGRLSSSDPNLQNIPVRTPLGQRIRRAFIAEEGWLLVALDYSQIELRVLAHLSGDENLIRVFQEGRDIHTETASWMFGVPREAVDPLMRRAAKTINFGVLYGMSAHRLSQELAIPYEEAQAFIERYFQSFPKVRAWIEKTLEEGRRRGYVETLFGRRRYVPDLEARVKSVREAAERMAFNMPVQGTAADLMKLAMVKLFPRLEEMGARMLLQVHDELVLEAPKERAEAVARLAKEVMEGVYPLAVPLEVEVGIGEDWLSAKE
Assay [4] has as its system HT-29. As to the kind of experiment: Cytotoxicity against human HT29 cells by MTT assay. Type of assay: cell-based. Background: Tetrazolium dyes change colour on reduction, which living cells bring about.
Assay [5] addresses T1, Telomerase reverse transcriptase. As to the kind of experiment: Inhibition of telomerase in JR8 cell extract by TRAP assay. Type of assay: cell-free.
Assay [6] is described as follows: Selectivity index, ratio of IC50 for Taq polymerase to IC50 for telomerase.

T1 sequence (O14746 whole entry): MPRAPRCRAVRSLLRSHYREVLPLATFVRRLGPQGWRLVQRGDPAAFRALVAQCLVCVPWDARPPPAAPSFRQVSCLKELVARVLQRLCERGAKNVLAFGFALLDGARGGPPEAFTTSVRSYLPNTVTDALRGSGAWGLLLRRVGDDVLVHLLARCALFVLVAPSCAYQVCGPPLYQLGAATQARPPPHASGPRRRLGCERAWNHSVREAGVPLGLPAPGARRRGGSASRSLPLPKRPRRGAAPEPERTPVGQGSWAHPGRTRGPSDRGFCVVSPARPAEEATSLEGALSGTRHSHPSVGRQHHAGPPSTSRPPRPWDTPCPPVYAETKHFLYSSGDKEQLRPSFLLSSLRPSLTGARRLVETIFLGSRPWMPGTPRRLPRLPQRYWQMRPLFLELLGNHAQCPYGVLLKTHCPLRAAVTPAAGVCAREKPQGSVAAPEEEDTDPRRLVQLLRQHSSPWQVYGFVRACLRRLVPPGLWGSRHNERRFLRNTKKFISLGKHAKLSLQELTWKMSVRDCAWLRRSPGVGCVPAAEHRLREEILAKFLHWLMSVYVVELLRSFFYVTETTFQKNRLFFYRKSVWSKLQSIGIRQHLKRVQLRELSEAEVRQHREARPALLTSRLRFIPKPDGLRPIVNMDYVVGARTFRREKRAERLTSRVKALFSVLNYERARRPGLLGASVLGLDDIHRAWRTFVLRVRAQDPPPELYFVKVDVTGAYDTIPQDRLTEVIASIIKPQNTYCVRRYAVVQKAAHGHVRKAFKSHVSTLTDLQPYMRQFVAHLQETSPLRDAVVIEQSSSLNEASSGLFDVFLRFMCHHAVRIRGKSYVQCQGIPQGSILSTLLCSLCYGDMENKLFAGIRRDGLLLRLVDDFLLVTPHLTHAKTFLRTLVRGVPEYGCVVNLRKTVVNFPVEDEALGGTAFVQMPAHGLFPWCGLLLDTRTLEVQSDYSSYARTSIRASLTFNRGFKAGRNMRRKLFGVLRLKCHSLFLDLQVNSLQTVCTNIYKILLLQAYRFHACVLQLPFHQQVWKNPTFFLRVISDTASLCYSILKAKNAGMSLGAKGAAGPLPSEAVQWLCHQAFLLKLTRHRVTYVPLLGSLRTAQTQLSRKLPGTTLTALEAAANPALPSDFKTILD

For `O=C1c2ccc3c4c(ccc(c24)C(=O)N1CCNCCO)C(=O)N(CCNCCO)C3=O`, the figures for the half-inhibitory concentration (IC50) in assay [1], in assay [3] and in assay [4] were 9.3 µM, 5.8 µM and 11.7 µM, respectively. In addition, in assay [2], the outcome was inactive.

As to `c1cc2c3ccc4c5c(ccc(c6ccc7c(c1CN(CCN1CCCCC1)C7)c26)c53)CN(CCN1CCCCC1)C4`, the concentration for half-maximal inhibition (IC50) (commonly the concentration that gives 50% inhibition) was determined as 28.1 µM in assay [1], 0.4 µM in assay [5], 10 µM in assay [3] and 5.4 µM in assay [4]. In assay [6], the Selectivity index stood at 25.

In the case of `C[N+](C)(C)CCN1C(=O)c2cccc3cccc(c23)C1=O`, the IC50 in assay [1] was at least 100 µM; in assay [3], 22 µM. For the same molecule, in assay [2], the outcome was inactive.

With `O=C1c2ccc3c4ccc5c6c(ccc(c7ccc(c2c37)C(=O)N1CCNCCO)c64)C(=O)N(CCNCCO)C5=O`, the IC50 in assay [1] came out at 2.62 µM; in assay [5], 0.06 µM; in assay [3], 0.2 µM; in assay [4], 1.17 µM. Also, the Selectivity index in assay [6] was found to be 2.

Consider `CN(C)CCCN1C(=O)c2ccc3c4c(ccc(c24)C1=O)C(=O)N(CCCN(C)C)C3=O`, for which the concentration for half-maximal inhibition (IC50) in assay [1] was 0.42 µM; in assay [5] it was 3.5 µM; in assay [3] it was 6.4 µM; in assay [4], 0.13 µM. Besides, in assay [6], the Selectivity index turned out to be 1.8.

For `CN1Cc2ccc3c4c(ccc(c24)C1)CN(C)C3`, the values for the IC50 in assay [1], in assay [3] and in assay [4] were at least 100 µM, above 40 µM and at least 100 µM, respectively. The outcome in assay [2] was inactive.

For the molecule `C[N+](C)(C)CCN1C(=O)c2ccc3c4c(ccc(c24)C1=O)C(=O)N(CC[N+](C)(C)C)C3=O`, the IC50 stood at 2.21 µM in assay [1], 2.5 µM in assay [5], 5 µM in assay [3] and 3.24 µM in assay [4]. For the same molecule, the Selectivity index in assay [6] amounted to 2.

For the molecule `O=C1c2ccc3c4ccc5c6c(ccc(c7ccc(c2c37)C(=O)N1CCN1CCCCC1)c64)C(=O)N(CCN1CCCCC1)C5=O`, the 50% inhibitory concentration (IC50) in assay [1] is at least 100 µM; in assay [5], 0.2 µM; in assay [3], 5 µM; in assay [4] it was 9.02 µM. Moreover, the Selectivity index in assay [6] was 25.

In the case of `CN(C)CCN1C(=O)c2cccc3cccc(c23)C1=O`, the IC50 in assay [1] is 3.42 µM; in assay [3], above 40 µM; in assay [4] it was 5.05 µM. Moreover, the outcome in assay [2] was inactive.

Take `C[N+](C)(C)CCN1C(=O)c2ccc3c4ccc5c6c(ccc(c7ccc(c2c37)C1=O)c64)C(=O)N(CC[N+](C)(C)C)C5=O`: the concentration for half-maximal inhibition (IC50) in assay [1] was at least 100 µM; in assay [5] it was 0.03 µM; in assay [3], 0.15 µM; in assay [4], at least 100 µM. Moreover, the Selectivity index in assay [6] was determined as 4.2.

As for `CN(C)CCN1C(=O)c2ccc3c4c(ccc(c24)C1=O)C(=O)N(CCN(C)C)C3=O`, the results for the IC50 in assay [1] and in assay [3] were 0.16 µM and 1.5 µM, respectively. For the same molecule, in assay [2], the outcome was inactive.

Turning to `CN(C)CCN1Cc2cccc3cccc(c23)C1`, the IC50 in assay [1] was at least 100 µM; in assay [3], above 40 µM; in assay [4], at least 100 µM. In addition, the result in assay [2] was inactive.

Turning to `CN(C)CCN1C(=O)c2ccc3c4ccc5c6c(ccc(c7ccc(c2c37)C1=O)c64)C(=O)N(CCN(C)C)C5=O`, the IC50 in assay [1] is 2.3 µM; in assay [5], 0.16 µM; in assay [3] it was 0.9 µM; in assay [4], 0.23 µM. In addition, the Selectivity index in assay [6] was determined as 5.6.

In the case of `C[N+](C)(C)CCCN1C(=O)c2ccc3c4c(ccc(c24)C1=O)C(=O)N(CCC[N+](C)(C)C)C3=O`, the 50% inhibitory concentration (IC50) in assay [1] amounted to 1.14 µM; in assay [5], 2.5 µM; in assay [3] it was 5 µM; in assay [4], 8.89 µM. Further, in assay [6], the Selectivity index worked out at 2.

In the case of `CN(C)CCN1Cc2ccc3c4c(ccc(c24)C1)CN(CCN(C)C)C3`, the figures for the IC50 in assay [1], in assay [3] and in assay [4] were at least 100 µM, 25 µM and 15.2 µM, respectively. Further, the outcome in assay [2] was inactive.
